Reference: US8188097B2, “Pyrazolo[1,5-A]pyrimidine compounds” (Mitsubishi Tanabe Pharma Corporation, priority 2005, dated 2012)

Each compound was assayed against T1, Human CB1 receptor (Homo sapiens, UniProt P21554) (assay: Human CB1 receptor binding assay ([3H]-CP55940 displacement, hCB1/CHO membrane fraction)). Conditions: human CB1 receptor membrane preparation, 30° C. for 90 minutes.
T1 construct: host or cells: CHO cells (hCB1/CHO#C3), membrane fraction prepared in house
T1 sequence (P21554 whole entry): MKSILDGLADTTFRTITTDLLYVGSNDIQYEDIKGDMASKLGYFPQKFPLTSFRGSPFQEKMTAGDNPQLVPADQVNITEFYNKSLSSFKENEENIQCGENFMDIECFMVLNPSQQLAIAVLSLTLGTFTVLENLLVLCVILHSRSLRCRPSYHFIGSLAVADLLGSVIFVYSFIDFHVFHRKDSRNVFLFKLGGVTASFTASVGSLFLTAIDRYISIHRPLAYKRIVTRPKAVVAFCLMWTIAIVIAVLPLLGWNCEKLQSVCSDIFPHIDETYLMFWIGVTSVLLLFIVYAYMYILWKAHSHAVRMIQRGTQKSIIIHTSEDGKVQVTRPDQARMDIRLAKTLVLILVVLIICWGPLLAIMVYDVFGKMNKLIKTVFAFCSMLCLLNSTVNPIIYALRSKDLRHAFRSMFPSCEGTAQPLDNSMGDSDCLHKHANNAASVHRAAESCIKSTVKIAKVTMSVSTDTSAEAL
Description: Human Cb1 Receptor Binding Assay
(1) Preparation of Human Cb1 Receptor (Membrane Fraction):
Human CB1-expressing cell line: hCB1/CHO#C3 (Euroscreen)
Buffer A: 50 mM tris-HCl (pH 7.5) containing ethylenediaminetetraacetic acid (2.5 mM), MgCl2 (5 mM) and sucrose (200 mM)
The receptor-expressing cells cultivated in the above medium were washed with phosphate buffer (×2) and thereto was added Buffer A (2 mL) under ice-cooling or 4° C. (the following procedures were also carried out at the same temperature). The cells were collected by using a cell-scraper, treated by a microtip-type ultrasonicator for 20 seconds (pulse-on: 2 sec, pulse-off: 1 sec) and centrifuged (500×g, 15 min). The supernatant was separated and centrifuged (43000×g, 60 min). The resultant pellet was suspended in Buffer A and homogenized with a potter-type homogenizer. To the homogenate was added an equal volume of 80% glycerol and stored at −80° C.
(2) Procedure of Cb1 Receptor Binding Assay:
Buffer B: 50 mM tris-HCl (pH 7.5) containing ethylenediaminetetraacetic acid (2.5 mM), MgCl2 (5 mM) and bovine serum albumine (2 mg/mL, fatty acid-free, SIGMA-A7030)
Buffer C: 50 mM tris-HCl (pH 7.5) containing ethylenediaminetetraacetic acid (2.5 mM), MgCl2 (5 mM) and bovine serum albumine (2 mg/mL, SIGMA-A7906)
Coating solution: 0.3% ethyleneimine polymer
Radioligand: [^3H]-CP55940 (30 nM/7992 dpm/mL) prepared by diluting 8.3 μM solution of the radioligand with Buffer B
Each well of the assay plate (96-well, Costar Code#3371) was filled with Buffer B (140 μL), a solution of each test compound in dimethylsulfoxide (20 μL, final concentration: […]), radioligand (20 μL) and membrane preparation (20 μL, 0.5 μg/20 μL) and the mixture was incubated at 30° C. for 90 minutes to proceed the binding reaction. The reaction mixture was harvested to each well of a plate presoaked with the above coating solution (Packard Unifilter GF/B, #6005177). The plate was washed with Buffer C (200 μL×10) and dried at 50° C. for 1 hour and Microscinti 40 (40 μL) was added to each well. The bound radiolabel was quantitated by scintillation counting (Top Count NXT, Packard). IC50 value of each test compound against the radioligand-binding to CB1 receptors was calculated on the basis of the quantitated radiolabel activity by using Graphpad Prism 3.02.
In the case of `CC(C)CNC(=O)c1cnn2c(-c3ccc(C(F)(F)F)cc3)c(-c3ccccc3Cl)cnc12` [Example 287], the “IC50 (nM)” value is reported as “+ +”.
With `CN(NC(=O)c1c(C(F)(F)F)nn2c(-c3ccc(Cl)cc3)c(-c3ccccc3Cl)cnc12)c1ccccn1` [Example 309] the “IC50 (nM)” value was “+ + +”.
`N#Cc1ccccc1-c1cnc2c(C(=O)NN3CCCCCC3)cnn2c1-c1ccc(Cl)cc1` [Example 252] was tested, and the “IC50 (nM)” value was “+ +”.
For `CC(=O)Nc1nn2c(-c3ccc(Cl)cc3)c(-c3ccccc3Cl)cnc2c1C(=O)NC1CCS(=O)(=O)C1` (stereo not shown) [Example 224], the “IC50 (nM)” value was “+ +”.
For `Cc1nn2c(-c3ccc(C(F)(F)F)cc3)c(-c3ccccc3Cl)cnc2c1S(=O)(=O)N1CCCC1` [Example 238, 6-(2-chlorophenyl)-7-(4-trifluoromethylphenyl)-2-methyl-3-(1-pyrrolidinyl)sulfonylpyrazolo[1,5-a]pyrimidine], the “IC50 (nM)” value was “+ +”.
For `Cc1nn2c(-c3ccc(Cl)cc3)c(-c3ccccc3Cl)cnc2c1C(=O)CN1CCS(=O)(=O)CC1` [Example 462], the “IC50 (nM)” value was “+ +”.
`O=C(NC1CCCCC1)c1cnn2c(-c3ccc(Cl)cc3)c(-c3ccccc3Cl)cnc12` [Example 10] was tested, and the “IC50 (nM)” value was “+ +”.
With `CN(NC(=O)c1c(N(C)S(C)(=O)=O)nn2c(-c3ccc(Cl)cc3)c(-c3ccccc3Cl)cnc12)c1ccccn1` [Example 452] the “IC50 (nM)” value was “+ + +”.
With `Cc1nn2c(-c3ccc(Cl)cc3)c(-c3ccccc3Cl)cnc2c1C(=O)N[C@H]1CCS(=O)(=O)C1` [Example 185] the “IC50 (nM)” value was “+ +”.
In the case of `Cc1nn2c(-c3ccc(Cl)cc3F)c(-c3ccccc3C#N)cnc2c1C(=O)NN1CCCC1` [Example 427], the “IC50 (nM)” value is reported as “+ +”.
`CN(NC(=O)c1cnn2c(-c3ccc(Cl)cc3)c(-c3ccccc3C#N)cnc12)c1cccc(Cl)c1` [Example 253] was tested, and the “IC50 (nM)” value was “+ + +”.
`O=C(NC1CSC1)c1cnn2c(-c3ccc(Cl)cc3)c(-c3ccccc3Cl)cnc12` [Example 324] was tested, and the “IC50 (nM)” value was “+ +”.
`Cc1nn2c(-c3ccc(Cl)s3)c(-c3ccccc3Cl)cnc2c1C(=O)NN(C)c1ccccn1` [Example 410] was tested, and the “IC50 (nM)” value was “+ +”.
